Test results from patent US12297218B2, “Complex comprising a PSMA-targeting compound linked to a lead or thorium radionuclide” (Sciencons AS, priority 2017, dated 2025).

Legend:
PC3 PIP model = details: typical, mouse xenografts, other researchers; cited from earlier work
[1] = system: C4-2 PSMA positive human prostate cells; experiment: Comparative therapy experiment in nude mice with C4-2 xenografts; type: in vivo; details: for Median survival: 52 MBq ^177Lu-PSMA-617 or 320 kBq ^212Pb-p-SCN-Bn-TCMC-PSMA ligand 1
Procedure: Male nude mice were inoculated in the flanks with C4-2 PSMA positive human prostate cells and 2 weeks later when tumors were 5-7 mm in diameters. Groups of 8 animals each received saline, 52 MBq of ^177Lu-PSMA-617 or 320 kBq of ^212Pb-p-SCN-Bn-TCMC-PSMA ligand 1. Animals were sacrificed when tumor size reached 20 mm due to animal welfare requirements. […] For ^212Pb the effective half-life was assumed to be 10.6 h, 10% of injected dose per gram decays in tumor and 100% of radiation in a tumor is absorbed in the tumor, 100% retention of ^212Pb and daughters in the tumors and 8 MeV radiation energy per decay. The tumor dosimetry for the injected activities gave on average 35.9 Gy to tumors for ^177Lu-PSMA-617 and 2.06 Gy to tumors for ^212Pb-p-SCN-Bn-TCMC-PSMA ligand 1 groups respectively.

[2] = system: C4-2 PSMA-positive xenografts; experiment: Biodistribution of radiolabelled ligands after intravenous injection in nude mice with C4-2 xenografts; details: for Tumor-to-kidney ratio / Kidney uptake / Tumor uptake: average; for Tumor-to-kidney ratio: 1-hour point after administration; for Kidney uptake / Tumor uptake: 4 hours after injection
Procedure: Each group usually consisted of three mice. […] Approximately 16 kBq of ^224Ra/^212Pb was injected in each animal, i.e., approximately 0.2 nmol of ligand per mouse. Animals were given anaesthesia and sacrificed by cervical dislocation followed by dissection and harvesting of tissue-, blood- and urine samples. The samples were weighed and counted on a gamma counter.
Three mice in each group. […] The molar concentration was the same for both products, i.e., 12.5 nmol per MBq. Approximately 16 kBq of ^224Ra/^212Pb was injected in each animal, i.e., approximately 0.2 nmol of ligand per mouse. Animals were given anaesthesia and sacrificed by cervical dislocation followed by dissection and harvesting of tissue-, blood- and urine samples. The samples were weighed and counted on a gamma counter.
Methods: Tumor and kidney uptake of ^212Pb-labeled p-SCN-Bn-TCMC-PSMA ligand 1 and ^177Lu-labeled PSMA-617 was compared at 1 hours and 4 hours after administration of the products by intravenous injection into nude mice with C4-2 xenografts as described in Example 9.

PSMA-positive xenografts = experiment: Biodistribution of single targeting solution (purified ^212Pb-p-SCN-Bn-TCMC-PSMA ligand 1) in mice with PSMA-positive xenografts; type: in vivo
Procedure: Each group usually consisted of three mice. The ^212Pb labelling was above 92% for the products.
Using a ^212Pb/^224Ra solution for reaction with p-SCN-Bn-TCMC-PSMA ligand 1 as described, purified ^212Pb-p-SCN-Bn-TCMC-PSMA ligand 1 was purified using a Sephadex G-10 gel filtration column and about 30 kBq and 300 ng of the purified radioligand product was injected per animal. […] The tumor-to-tissue ratios (Table 4) indicates suitability for radioligand targeting with ^212Pb.

C4-2 cells = experiment: Prostate cancer cell binding of ligands labeled with ^212Pb; set-up: species or system human
Procedure: the cell binding fractions measured by adding about 1 ng of radioligand to 0.2 ml of C4-2 cells (5×10^7 cells per ml) in a 5 ml test tube and incubate for 1 h before measuring applied activity, wash cells 3 times with 0.5 ml 0.5% bovine serum albumin in DPBS and thereafter recount the washed cell pellet. […] Nonspecific binding was measured by blocking the cells with excess 10 μg/ml of unlabelled ligand before adding radioligand.

Compound: O=C([O-])CN1CCN(CC(=O)[O-])CCN(CC(=O)NCC2CCC(C(=O)N[C@@H](Cc3ccc4ccccc4c3)C(=O)NCCCC[C@H](NC(=O)N[C@@H](CCC(=O)O)C(=O)O)C(=O)O)CC2)CCN(CC(=O)[O-])CC1.[177Lu+3] (stereo partly shown) [^177Lu-PSMA-617, reference compound]
- PSMA-ligand uptake in PC3 PIP model (PC3 PIP model): 30-40 % ID/g
- Median survival [1]: 20 days
- Tumor-to-kidney ratio [2]: 0.17
- Kidney uptake [2]: 17.4 % ID/g
- Tumor uptake [2]: 13.6 % ID/g
- PSMA-ligand uptake in the xenograft model used ([2]; typical, mouse xenografts): 10-15 % ID/g

Compound: NC(=O)CN1CCN(CC(N)=O)CCN(CC(N)=O)C(Cc2ccc(NC(=S)NCC3CCC(C(=O)NC(Cc4ccc5ccccc5c4)C(=O)NCCCCC(NC(=O)NC(CCC(=O)O)C(=O)O)C(=O)O)CC3)cc2)CN(CC(N)=O)CC1.[212Pb+2] (stereo not shown) [^212Pb-p-SCN-Bn-TCMC-PSMA ligand 1]
- Median survival [1]: > 30 days
- Radiobiological effectiveness (RBE) vs ^177Lu-PSMA-617 ([1]; C4-2 xenografts): at least 17
- Survival at day 30 after treatment ([1]; groups of 8): 75%
- Tumor to tissue ratio, Tumor/Femur (PSMA-positive xenografts; 1 h): 30.4
- Tumor to tissue ratio, Tumor/blood (PSMA-positive xenografts; 1 h): 14.9
- Tumor to tissue ratio, Tumor/kidneys (PSMA-positive xenografts; 1 h): 0.41
- Tumor to tissue ratio, Tumor/muscle (PSMA-positive xenografts; 1 h): 42.6
- Tumor to tissue ratio, Tumor/Femur (PSMA-positive xenografts; 2 h): 39.7
- Tumor to tissue ratio, Tumor/blood (PSMA-positive xenografts; 2 h): 29.4
- Tumor to tissue ratio, Tumor/kidneys (PSMA-positive xenografts; 2 h): 0.62
- Tumor to tissue ratio, Tumor/muscle (PSMA-positive xenografts; 2 h): 72.1
- Tumor to tissue ratio, Tumor/Femur (PSMA-positive xenografts; 4 h): 24.8
- Tumor to tissue ratio, Tumor/blood (PSMA-positive xenografts; 4 h): 30.7
- Tumor to tissue ratio, Tumor/kidneys (PSMA-positive xenografts; 4 h): 1.54
- Tumor to tissue ratio, Tumor/muscle (PSMA-positive xenografts; 4 h): 61.5
- Tumor to tissue ratio, Tumor/Femur (PSMA-positive xenografts; 8 h): 19.8
- Tumor to tissue ratio, Tumor/blood (PSMA-positive xenografts; 8 h): 112.7
- Tumor to tissue ratio, Tumor/kidneys (PSMA-positive xenografts; 8 h): 3.60
- Tumor to tissue ratio, Tumor/muscle (PSMA-positive xenografts; 8 h): 366.2
- Biodistribution, Bladder (PSMA-positive xenografts; Bladder, 8 h): 0.26 % ID/g
- Biodistribution, Blood (PSMA-positive xenografts; 2 h): 0.54 % ID/g
- Biodistribution, Blood (PSMA-positive xenografts; 4 h): 0.46 % ID/g
- Biodistribution, Blood (PSMA-positive xenografts; 8 h): 0.13 % ID/g
- Biodistribution, Brain (PSMA-positive xenografts; 1 h): 0.61 % ID/g
- Biodistribution, Brain (PSMA-positive xenografts; 2 h): 0.04 % ID/g
- Biodistribution, Brain (PSMA-positive xenografts; 4 h): 0.07 % ID/g
- Biodistribution, Brain (PSMA-positive xenografts; 8 h): 0.02 % ID/g
- Biodistribution, Femur (PSMA-positive xenografts; 1 h): 0.87 % ID/g
- Biodistribution, Femur (PSMA-positive xenografts; 2 h): 0.40 % ID/g
- Biodistribution, Femur (PSMA-positive xenografts; 4 h): 0.57 % ID/g
- Biodistribution, Femur (PSMA-positive xenografts; 8 h): 0.74 % ID/g
- Biodistribution, Heart (PSMA-positive xenografts; 1 h): 0.78 % ID/g
- Biodistribution, Heart (PSMA-positive xenografts; 2 h): 0.20 % ID/g
- Biodistribution, Heart (PSMA-positive xenografts; 4 h): 0.52 % ID/g
- Biodistribution, Heart (PSMA-positive xenografts; 8 h): 0.09 % ID/g
- Biodistribution, Large intestine (PSMA-positive xenografts; 1 h): 0.25 % ID/g
- Biodistribution, Large intestine (PSMA-positive xenografts; 2 h): 0.39 % ID/g
- Biodistribution, Large intestine (PSMA-positive xenografts; 4 h): 0.18 % ID/g
- Biodistribution, Large intestine (PSMA-positive xenografts; 8 h): 0.17 % ID/g
- Biodistribution, Lungs (PSMA-positive xenografts; 2 h): 0.40 % ID/g
- Biodistribution, Lungs (PSMA-positive xenografts; 4 h): 0.75 % ID/g
- Biodistribution, Lungs (PSMA-positive xenografts; 8 h): 0.17 % ID/g
- Biodistribution, Muscle (PSMA-positive xenografts; 1 h): 0.62 % ID/g
- Biodistribution, Muscle (PSMA-positive xenografts; 2 h): 0.22 % ID/g
- Biodistribution, Muscle (PSMA-positive xenografts; 4 h): 0.23 % ID/g
- Biodistribution, Muscle (PSMA-positive xenografts; 8 h): 0.04 % ID/g
- Biodistribution, Prostate (PSMA-positive xenografts; Prostate, 2 h): 3.80 % ID/g
- Biodistribution, Salivary gland (PSMA-positive xenografts; 1 h): 0.72 % ID/g
- Biodistribution, Salivary gland (PSMA-positive xenografts; 2 h): 0.32 % ID/g
- Biodistribution, Salivary gland (PSMA-positive xenografts; 4 h): 0.34 % ID/g
- Biodistribution, Salivary gland (PSMA-positive xenografts; 8 h): 0.15 % ID/g
- Biodistribution, Skin (PSMA-positive xenografts; 1 h): 1.70 % ID/g
- Biodistribution, Skin (PSMA-positive xenografts; 2 h): 0.47 % ID/g
- Biodistribution, Skin (PSMA-positive xenografts; 4 h): 0.42 % ID/g
- Biodistribution, Skin (PSMA-positive xenografts; 8 h): 0.23 % ID/g
- Biodistribution, Skull (PSMA-positive xenografts; 1 h): 0.77 % ID/g
- Biodistribution, Skull (PSMA-positive xenografts; 2 h): 0.38 % ID/g
- Biodistribution, Skull (PSMA-positive xenografts; 4 h): 0.37 % ID/g
- Biodistribution, Skull (PSMA-positive xenografts; 8 h): 0.63 % ID/g
- Biodistribution, Small intestine (PSMA-positive xenografts; 1 h): 0.34 % ID/g
- Biodistribution, Small intestine (PSMA-positive xenografts; 2 h): 0.23 % ID/g
- Biodistribution, Small intestine (PSMA-positive xenografts; 4 h): 0.30 % ID/g
- Biodistribution, Small intestine (PSMA-positive xenografts; 8 h): 0.08 % ID/g
- Biodistribution, Spleen (PSMA-positive xenografts; 2 h): 0.44 % ID/g
- Biodistribution, Spleen (PSMA-positive xenografts; 4 h): 0.54 % ID/g
- Biodistribution, Spleen (PSMA-positive xenografts; 8 h): 0.36 % ID/g
- Biodistribution, Stomach (PSMA-positive xenografts; 1 h): 0.16 % ID/g
- Biodistribution, Stomach (PSMA-positive xenografts; 2 h): 0.22 % ID/g
- Biodistribution, Stomach (PSMA-positive xenografts; 4 h): 0.10 % ID/g
- Biodistribution, Stomach (PSMA-positive xenografts; 8 h): 0.09 % ID/g
- Biodistribution, Testes (PSMA-positive xenografts; 2 h): 0.56 % ID/g
- Biodistribution, Testes (PSMA-positive xenografts; 4 h): 0.38 % ID/g
- Biodistribution, Testes (PSMA-positive xenografts; 8 h): 0.12 % ID/g
- ^212Pb-p-SCN-Bn-TCMC-PSMA ligand 1 to PSMA-617 ratio, blood ([2]; 4 h after injection): 1.21
- ^212Pb-p-SCN-Bn-TCMC-PSMA ligand 1 to PSMA-617 ratio, kidneys ([2]; 4 h after injection): 0.20
- ^212Pb-p-SCN-Bn-TCMC-PSMA ligand 1 to PSMA-617 ratio, liver ([2]; 4 h after injection): 2.67
- ^212Pb-p-SCN-Bn-TCMC-PSMA ligand 1 to PSMA-617 ratio, spleen ([2]; 4 h after injection): 0.71
- ^212Pb-p-SCN-Bn-TCMC-PSMA ligand 1 to PSMA-617 ratio, tumor ([2]; 4 h after injection, ^224Ra/^212Pb solution): 1.35
- Tumor-to-kidney ratio [2]: 0.40
- Kidney uptake [2]: 8.1 % ID/g
- Tumor uptake [2]: 13.9 % ID/g

Compound: NC(=O)CN1CCN(CC(N)=O)CCN(CC(N)=O)C(Cc2ccc(NC(=S)NC[C@H]3CC[C@H](C(=O)N[C@@H](Cc4ccc5ccccc5c4)C(=O)NCCCC[C@H](NC(=O)N[C@@H](CCC(=O)O)C(=O)O)C(=O)O)CC3)cc2)CN(CC(N)=O)CC1 (stereo partly drawn) [p-SCN-Bn-TCMC-PSMA ligand 1, (((1S)-1-carboxy-5-((2S)-3-(naphthalen-2-yl)-2-((1r,4S)-4-((3-(4-((1,4,7,10-tetrakis(2-amino-2-oxoethyl)-1,4,7,10-tetraazacyclododecan-2-yl)methyl)phenyl)thioureido)methyl)cyclohexane-1-carboxamido)propanamido)pentyl)carbamoyl)-L-glutamic acid; trifloroacetic acid (1:4)]
- Difference in cell-binding between radiolabelled p-SCN-Bn-TCMC-PSMA ligand 1 and PSMA-617 (C4-2 cells): No significant difference
